Values quoted from earlier work as cited in patent US20010006686A1, “INFLAMMATORY MEDIATION OBTAINED FROM ATRACTYLODES LANCEA” (priority 1999, published 2001).

Target: T1, cyclooxygenase-1 (Ovis aries, UniProt P05979)
T1 sequence (P05979 25-600): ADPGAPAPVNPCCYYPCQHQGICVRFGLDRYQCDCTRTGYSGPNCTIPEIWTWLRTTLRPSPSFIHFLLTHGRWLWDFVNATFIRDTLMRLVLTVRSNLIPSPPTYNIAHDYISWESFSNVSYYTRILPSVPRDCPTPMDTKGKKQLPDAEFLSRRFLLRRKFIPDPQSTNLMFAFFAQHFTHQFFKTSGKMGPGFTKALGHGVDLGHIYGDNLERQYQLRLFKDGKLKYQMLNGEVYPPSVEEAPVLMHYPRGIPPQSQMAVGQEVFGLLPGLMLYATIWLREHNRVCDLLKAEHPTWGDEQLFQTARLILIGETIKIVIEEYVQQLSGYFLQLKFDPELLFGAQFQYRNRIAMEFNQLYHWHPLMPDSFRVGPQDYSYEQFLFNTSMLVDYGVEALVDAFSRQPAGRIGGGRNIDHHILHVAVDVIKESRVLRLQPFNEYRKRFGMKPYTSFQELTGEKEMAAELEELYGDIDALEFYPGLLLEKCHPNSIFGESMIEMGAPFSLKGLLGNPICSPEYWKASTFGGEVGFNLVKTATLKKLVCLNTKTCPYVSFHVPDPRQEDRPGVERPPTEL
Conditions: Resch, et al., J. Nat. Prod., 61, 347-350 (1998)

inhibitory effects on COX-1 activity (in words): significant COX-1 inhibitory effects
Compound: CC(C)=CCCC1(C)C=Cc2cc(O)cc(C)c2O1 (stereo not shown) [atractylochromene]
